Measured values taken from publication PMC6291527, “A Nanostructured Lipid System to Improve the Oral Bioavailability of Ruthenium(II) Complexes for the Treatment of Infections Caused by Mycobacterium tuberculosis” (Frontiers in Microbiology, 2018).
≈ marks a conversion by molar mass, not a printed value.

Assays:
Assay in all cases: microbe, parasite or virus in culture
Type in all cases: cell-based, Mycobacterium tuberculosis
[1] = system: M. tuberculosis clinical isolate CF100; details: for MIC90: Mycobacterium tuberculosis, read-out: MIC90 of the Compounds, isolate CF100; for MIC90 of the Compounds, isolate CF100: REMA, CF100 resistant to INH, NL = not loaded (DMSO), L = loaded into NLS
[2] = system: M. tuberculosis clinical isolate CF158; details: for MIC90: Mycobacterium tuberculosis, read-out: MIC90 of the Compounds, isolate CF158; for MIC90 of the Compounds, isolate CF158: REMA, CF158 resistant to INH and RIF, NL = not loaded (DMSO), L = loaded into NLS
[3] = system: M. tuberculosis clinical isolate CF169; details: for MIC90: Mycobacterium tuberculosis, read-out: MIC90 of the Compounds, isolate CF169; for MIC90 of the Compounds, isolate CF169: REMA, CF169 resistant to INH and RIF, NL = not loaded (DMSO), L = loaded into NLS

Row | Molecule | MIC90 [1] [µg/mL] | MIC90 [2] [µg/mL] | MIC90 [3] [µg/mL] | MIC90 of the Compounds, isolate CF100 [1] | MIC90 of the Compounds, isolate CF158 [2] | MIC90 of the Compounds, isolate CF169 [3]
1 | NCC[C@H](O)C(=O)N[C@@H]1C[C@H](N)[C@@H](O[C@H]2O[C@H](CN)[C@@H](O)[C@H](O)[C@H]2O)[C@H](O)[C@H]1O[C@H]1O[C@H](CO)[C@@H](O)[C@H](N)[C@H]1O [AMI, amikacin] | 0.7 (≈ 1.2 µM) | 0.6 (≈ 1.02 µM) | 0.6 (≈ 1.02 µM) | – | – | –
2 | COc1c(N2CCNC(C)C2)c(F)cc2c(=O)c(C(=O)O)cn(C3CC3)c12 (stereo not shown) [GAT, gatifloxacin] | 0.5 (≈ 1.33 µM) | 0.2 (≈ 0.533 µM) | 1.2 (≈ 3.2 µM) | – | – | –
3 | NNC(=O)c1ccncc1 [INH, isoniazid] | > 50 | > 50 | > 50 | >50 µg/mL | >50 µg/mL | –
4 | NC[C@@H]1O[C@@H](O[C@H]2[C@H](O)[C@@H](O[C@H]3O[C@H](CO)[C@@H](O)[C@H](N)[C@H]3O)[C@H](N)C[C@@H]2N)[C@@H](O)[C@H](O)[C@H]1O [KAN] | – | – | – | 7.8 µg/mL | 2.8 µg/mL | 1.5 µg/mL
5 | CC1COc2c(N3CCN(C)CC3)c(F)cc3c(=O)c(C(=O)O)cn1c23 (stereo not shown) [OFL, ofloxacin] | 0.9 (≈ 2.49 µM) | 0.7 (≈ 1.94 µM) | 11.5 (≈ 31.8 µM) | – | – | –
6 | CO[C@H]1/C=C/O[C@@]2(C)Oc3c(C)c(O)c4c(O)c(c(/C=N/N5CCN(C)CC5)c(O)c4c3C2=O)NC(=O)/C(C)=C\C=C\[C@H](C)[C@H](O)[C@@H](C)[C@@H](O)[C@@H](C)[C@H](OC(C)=O)[C@@H]1C [RIF, rifampicin] | < 0.195 | > 50 | > 50 | – | >50 µg/mL | >50 µg/mL
7 | Cc1ccnc(-c2cc(C)ccn2)c1.F[P-](F)(F)(F)(F)F.O=C([O-])c1ccccn1.[Ru+2].c1ccc(P(CCCCP(c2ccccc2)c2ccccc2)c2ccccc2)cc1 [SCAR2, [Ru(pic)(dppb)(Me-bipy)]PF6] | – | – | – | 5.7 µg/mL | 1.6^∗ μg mL^-1 | 2.6^∗ μg mL^-1
8 | F[P-](F)(F)(F)(F)F.O=C([O-])c1ccccn1.[Ru+2].c1ccc(P(CCP(c2ccccc2)c2ccccc2)c2ccccc2)cc1.c1ccc(P(CCP(c2ccccc2)c2ccccc2)c2ccccc2)cc1 [SCAR5, cis-[Ru(pic)(dppe)2]PF6] | – | – | – | 5.1 µg/mL | 2.9^∗ μg mL^-1 | 2.9^∗ μg mL^-1
9 | [Ru(pic)(dppb)(bipy)]PF6 [SCAR1] | – | – | – | 10.9 µg/mL | 2.6^∗ μg mL^-1 | 2.9^∗ μg mL^-1
10 | [Ru(pic)(dppb)(phen)]PF6 [SCAR4] | – | – | – | 5.4 µg/mL | 2.7 µg/mL | 3.0 µg/mL
11 | [Ru(pic)(dppe)(phen)]PF6 [SCAR7] | – | – | – | 7.3^∗ μg mL^-1 | 3.0 µg/mL | 4.4 µg/mL
